Results taken from US20090156577A1, “7-AMINO ALKYLIDENYL-HETEROCYCLIC QUINOLONES AND NAPHTHYRIDONES” (priority 2004, published 2009).
≈ marks a conversion by molar mass, not a printed value. Like-named read-outs stand apart in the source and are kept apart here.

System: pathogenic bacteria
Test: MIC by microdilution broth method (NCCLS M7-A4), in vitro antibacterial activity
Assay type: cell-based
Summary of the method: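 MIC read after 35 °C incubation for 16–20 h relative to drug-free growth wells. Cation-adjusted Mueller-Hinton broth with two-fold compound dilutions, organisms at roughly 5×10^4 CFU/well final. Method follows NCCLS document M7-A4.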

[1] = Staphylococcus aureus, Organism A: Staphylococcus aureus OC4172, read-out: MIC
[2] = Streptococcus pneumoniae, ATCC49619, Organism E: Streptococcus pneumoniae ATCC 49619, read-out: MIC
[3] = Streptococcus pneumoniae, Organism C: fluoroquinolone-resistant clinical isolate of Streptococcus pneumoniae (QRDR amino acid substitutions)
[4] = Streptococcus pneumoniae, Organism D: fluoroquinolone-resistant clinical isolate of Streptococcus pneumoniae (QRDR amino acid substitutions)
[5] = Streptococcus pneumoniae, Organism B: fluoroquinolone-resistant clinical isolate of Streptococcus pneumoniae (QRDR amino acid substitutions)

Row | SMILES | MIC [1] [µg/mL] | MIC [2] [µg/mL] | MIC [3] [µg/mL] | MIC [4] [µg/mL] | MIC [5] [µg/mL]
1 | C[C@H]1COc2c(N3CCC/C(=C(/Cl)CN)CC3)c(F)cc3c(=O)c(C(=O)O)cn1c23 [Compound 372, (3S)-9-[(Z)-4-(2-Amino-1-chloro-ethylidene)-azepan-1-yl]-8-fluoro-3-methyl-6-oxo-2,3-dihydro-6H-1-oxa-3a-aza-phenalene-5-carboxylic Acid] | 0.5 (≈ 1.15 µM) | 2 (≈ 4.59 µM) | 16 (≈ 36.7 µM) | 8 (≈ 18.4 µM) | 
2 | C[C@H]1COc2c(N3CCC/C(=C(\Cl)CN)CC3)c(F)cc3c(=O)c(C(=O)O)cn1c23 [Compound 373, (3S)-9-[(E)-4-(2-Amino-1-chloro-ethylidene)-azepan-1-yl]-8-fluoro-3-methyl-6-oxo-2,3-dihydro-6H-1-oxa-3a-aza-phenalene-5-carboxylic Acid] | 0.06 (≈ 0.138 µM) | 0.12 (≈ 0.275 µM) | 2 (≈ 4.59 µM) | 1 (≈ 2.29 µM) | 0.5 (≈ 1.15 µM)
3 | NC/C(F)=C1\CCCN(c2nc3c(cc2F)c(=O)c(C(=O)O)cn3C2CC2)C1 [Compound 374, (Z)-7-[3-(2-Amino-1-fluoro-ethylidene)-piperidin-1-yl]-1-cyclopropyl-6-fluoro-4-oxo-1,4-dihydro-[1,8]naphthyridine-3-carboxylic acid] | 0.06 (≈ 0.154 µM) | 0.5 (≈ 1.28 µM) | 16 (≈ 41 µM) | 4 (≈ 10.2 µM) | 2 (≈ 5.12 µM)
4 | NC/C=C1/CCCN(c2nc3c(cc2F)c(=O)c(C(=O)O)cn3C2CC2)C1 [Compound 375, (Z)-7-[3-(2-Amino-ethylidene)-piperidin-1-yl]-1-cyclopropyl-6-fluoro-4-oxo-1,4-dihydro-[1,8]naphthyridine-3-carboxylic acid] | 0.12 (≈ 0.322 µM) | 8 (≈ 21.5 µM) | > 16 | > 16 | > 16
5 | NC/C=C1\CCCN(c2nc3c(cc2F)c(=O)c(C(=O)O)cn3C2CC2)C1 [Compound 376, (E)-7-[3-(2-Amino-ethylidene)-piperidin-1-yl]-1-cyclopropyl-6-fluoro-4-oxo-1,4-dihydro-[1,8]naphthyridine-3-carboxylic acid] | 0.25 (≈ 0.671 µM) | 1 (≈ 2.69 µM) | > 16 | > 16 | 
6 | C/C(CN)=C1/CCCN(c2nc3c(cc2F)c(=O)c(C(=O)O)cn3C2CC2)C1 [Compound 377, (E)-7-[3-(2-Amino-1-methyl-ethylidene)-piperidin-1-yl]-1-cyclopropyl-6-fluoro-4-oxo-1,4-dihydro-[1,8]naphthyridine-3-carboxylic acid] | 0.5 (≈ 1.29 µM) | 4 (≈ 10.4 µM) | 8 (≈ 20.7 µM) | > 16 | 16 (≈ 41.4 µM)
7 | NC/C(Cl)=C1\CCCN(c2nc3c(cc2F)c(=O)c(C(=O)O)cn3C2CC2)CC1 [Compound 378, (Z)-7-[4-(2-Amino-1-chloro-ethylidene)-azepan-1-yl]-1-cyclopropyl-6-fluoro-4-oxo-1,4-dihydro-[1,8]naphthyridine-3-carboxylic acid] | 0.25 (≈ 0.594 µM) | 1 (≈ 2.38 µM) | 4 (≈ 9.5 µM) | 16 (≈ 38 µM) | 
8 | NC/C(Cl)=C1/CCCN(c2nc3c(cc2F)c(=O)c(C(=O)O)cn3C2CC2)CC1 [Compound 379, (E)-7-[4-(2-Amino-1-chloro-ethylidene)-azepan-1-yl]-1-cyclopropyl-6-fluoro-4-oxo-1,4-dihydro-[1,8]naphthyridine-3-carboxylic acid] | 0.25 (≈ 0.594 µM) | 2 (≈ 4.75 µM) | 8 (≈ 19 µM) | 16 (≈ 38 µM) | 1 (≈ 2.38 µM)
9 | C/C(CN)=C1\CCCN(c2nc3c(cc2F)c(=O)c(C(=O)O)cn3-c2ccc(F)cc2F)C1 [Compound 380, (Z)-7-[3-(2-Amino-1-methyl-ethylidene)-piperidin-1-yl]-1-(2,4-difluoro-phenyl)-6-fluoro-4-oxo-1,4-dihydro-[1,8]naphthyridine-3-carboxylic acid] | 0.12 (≈ 0.262 µM) | 0.5 (≈ 1.09 µM) | 8 (≈ 17.5 µM) | 4 (≈ 8.73 µM) | 8 (≈ 17.5 µM)
10 | C/C(CN)=C1/CCCN(c2nc3c(cc2F)c(=O)c(C(=O)O)cn3-c2ccc(F)cc2F)C1 [Compound 381, (E)-7-[3-(2-Amino-1-methyl-ethylidene)-piperidin-1-yl]-1-(2,4-difluoro-phenyl)-6-fluoro-4-oxo-1,4-dihydro-[1,8]naphthyridine-3-carboxylic acid] | 0.5 (≈ 1.09 µM) | 4 (≈ 8.73 µM) | > 16 | > 16 | 4 (≈ 8.73 µM)
11 | NC/C(F)=C1\CCCN(c2cc3c(cc2F)c(=O)c(C(=O)O)cn3C2CC2)C1 [Compound 382, (Z)-7-[3-(2-Amino-1-fluoro-ethylidene)-piperidin-1-yl]-1-cyclopropyl-6-fluoro-4-oxo-1,4-dihydro-quinoline-3-carboxylic acid] | 0.5 (≈ 1.28 µM) | 2 (≈ 5.14 µM) | > 16 | 16 (≈ 41.1 µM) | 8 (≈ 20.5 µM)
12 | NC/C=C1/CCCN(c2cc3c(cc2F)c(=O)c(C(=O)O)cn3C2CC2)C1 [Compound 383, (Z)-7-[3-(2-Amino-ethylidene)-piperidin-1-yl]-1-cyclopropyl-6-fluoro-4-oxo-1,4-dihydro-quinoline-3-carboxylic acid] | 0.12 (≈ 0.323 µM) | 1 (≈ 2.69 µM) | > 16 | > 16 | 8 (≈ 21.5 µM)
13 | NC/C=C1\CCCN(c2cc3c(cc2F)c(=O)c(C(=O)O)cn3C2CC2)C1 [Compound 384, (E)-7-[3-(2-Amino-ethylidene)-piperidin-1-yl]-1-cyclopropyl-6-fluoro-4-oxo-1,4-dihydro-quinoline-3-carboxylic acid] | 1 (≈ 2.69 µM) | 8 (≈ 21.5 µM) | > 16 | > 16 | 
14 | C/C(CN)=C1/CCCN(c2cc3c(cc2F)c(=O)c(C(=O)O)cn3C2CC2)C1 [Compound 385, (E)-7-[3-(2-Amino-1-methyl-ethylidene)-piperidin-1-yl]-1-cyclopropyl-6-fluoro-4-oxo-1,4-dihydro-quinoline-3-carboxylic acid] | 1 (≈ 2.59 µM) | 8 (≈ 20.8 µM) | > 16 | > 16 | > 16
15 | NC/C(Cl)=C1\CCCN(c2cc3c(cc2F)c(=O)c(C(=O)O)cn3C2CC2)CC1 [Compound 386, (Z)-7-[4-(2-Amino-1-chloro-ethylidene)-azepan-1-yl]-1-cyclopropyl-6-fluoro-4-oxo-1,4-dihydro-quinoline-3-carboxylic acid] | 0.25 (≈ 0.595 µM) | 2 (≈ 4.76 µM) | 8 (≈ 19.1 µM) | 16 (≈ 38.1 µM) | 
16 | NC/C(Cl)=C1/CCCN(c2cc3c(cc2F)c(=O)c(C(=O)O)cn3C2CC2)CC1 [Compound 387, (E)-7-[4-(2-Amino-1-chloro-ethylidene)-azepan-1-yl]-1-cyclopropyl-6-fluoro-4-oxo-1,4-dihydro-quinoline-3-carboxylic acid] | 0.5 (≈ 1.19 µM) | 2 (≈ 4.76 µM) | 16 (≈ 38.1 µM) | 16 (≈ 38.1 µM) | > 16
17 | COc1c(N2CCC/C(=C(/F)CN)C2)c(F)cc2c(=O)c(C(=O)O)cn(C3CC3)c12 [Compound 388, (Z)-7-[3-(2-Amino-1-fluoro-ethylidene)-piperidin-1-yl]-1-cyclopropyl-6-fluoro-8-methoxy-4-oxo-1,4-dihydro-quinoline-3-carboxylic acid] | ≤ 0.25 | 0.5 (≈ 1.19 µM) | 8 (≈ 19.1 µM) | 2 (≈ 4.77 µM) | 2 (≈ 4.77 µM)
